From US20120252773A1, “Method and composition for inhibiting cell proliferation and angiogenesis” (priority 2005, published 2012)

Assays:
[1] = tested on: HIF-1α protein in RAW 264.7 immortalized mouse macrophages; test: HIF-1α protein expression by immunoblotting, RAW 264.7 macrophages; assay type: cell-based; conditions: RAW 264.7 macrophages (normal cell line)
Method: Hypoxia experiments were performed in either of two ways. To produce a very low ambient oxygen concentration (effectively anoxia), we used a protocol in which cells were incubated in a 5% CO2-air atmosphere at 37° C. overnight and then placed in aluminum gas-exchange chambers maintained at 37° C. (Laderoute K R et al. Mol Cell Biol 22: 2515-2523, (2002); Laderoute K R et al. Mol Cell Biol 24: 4128-4137, (2004)). The chambers containing the cells were then placed in a 37° C. circulating water bath and the original atmosphere was repeatedly exchanged with 5% CO2-95% N2 using a manifold equipped with a vacuum pump and a gas cylinder. Atmospheric oxygen partial pressure (pO2) values of less than or equal to 0.01% (relative to air at pO2 of about 21%) can be achieved inside the chambers using this system. […] Atmospheric oxygen levels in both the chambers and the glove box have been measured and calibrated using a polarographic oxygen electrode (Oxygen Sensors, Inc., Norristown, Pa.). […]
We used immunoblotting to evaluate the experiments. […] After spinning at 9,000×g for 5 min at 4° C., the protein concentrations of the supernatants were determined by using a bicinchoninic acid assay (Pierce Biotechnology). […] Primary antibody binding was detected and visualized by using the ECL Plus Western Blotting Detection System (Amersham Pharmacia Biotech) according to the supplier's instructions. […]

[2] = molecular target: T1, Human recombinant estrogen receptor-α (ER-α) (Homo sapiens, UniProt P03372); test: Estrogen receptor binding assay, 3H-17β-estradiol displacement, ER-α; conditions: 4° C. overnight
T1 construct: purchased PanVera Corporation (Madison, Wis.)
T1 sequence (P03372 1-595): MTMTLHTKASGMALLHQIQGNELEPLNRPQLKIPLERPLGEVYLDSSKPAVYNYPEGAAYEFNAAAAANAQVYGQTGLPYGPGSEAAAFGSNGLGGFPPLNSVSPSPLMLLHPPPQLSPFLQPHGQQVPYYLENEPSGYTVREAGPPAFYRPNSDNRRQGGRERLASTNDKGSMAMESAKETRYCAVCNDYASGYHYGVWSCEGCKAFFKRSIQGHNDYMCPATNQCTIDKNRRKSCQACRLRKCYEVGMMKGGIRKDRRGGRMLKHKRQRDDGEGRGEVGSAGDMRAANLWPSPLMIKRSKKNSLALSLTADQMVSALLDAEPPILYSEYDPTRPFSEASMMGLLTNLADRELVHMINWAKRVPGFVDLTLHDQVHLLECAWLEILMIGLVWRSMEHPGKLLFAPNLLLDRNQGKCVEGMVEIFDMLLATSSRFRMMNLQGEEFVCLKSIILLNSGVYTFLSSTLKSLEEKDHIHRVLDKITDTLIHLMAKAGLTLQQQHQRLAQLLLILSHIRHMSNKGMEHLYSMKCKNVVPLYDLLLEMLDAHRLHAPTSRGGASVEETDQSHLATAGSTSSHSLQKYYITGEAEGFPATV
Method: Human recombinant estrogen receptor-α (ER-α) and estrogen receptor-β (ER-β) were obtained from PanVera Corporation (Madison, Wis.) to conduct the binding assay. To measure the binding affinity of (2), various concentrations of (2) or 17β-estradiol were incubated with either ER-α or ER-β receptor in the presence of a fixed amount of ^3H-17β-estradiol at 4° C. overnight. At the end of the incubation, the free- and bound-3H-estradiol were separated following the instructions provided by the manufacturer using hydroxylapatite.

With `C[C@@H]1Cc2cc(O)ccc2C2CCC3(C)/C(=C/COCCN(C)C)CCC3C21` (stereo partly drawn) [Compound (2), (E)-3-Hydroxy-7α-methyl-21-[(2-dimethylamino)ethoxy]-19-norpregna-1,3,5(10),17(20)-tetraene] the HIF-1α protein expression [1] was “did not influence” and the “binding affinity (relative to non-radiolabeled estradiol, 50% displacement of 3H-estradiol)” value [2] was 3.
